Results taken from US20220289794A1, “SYNTHETIC ANTIMICROBIAL PEPTIDES” (priority 2019, published 2022).

Assays:
B. subtilis (ATCC-6633) = assay: Broad-spectrum activity against Gram-Positive bacteria (MIC); format: cell-based; parameters: unit not given here
E. coli (ATCC BAA-2452) = assay: Broad-spectrum activity against Gram-Negative bacteria (MIC); format: cell-based; details: Table 16, Gram-negative panel
B. cereus (ATCC-13061) = assay: Broad-spectrum activity against Gram-Positive bacteria (MIC); format: cell-based; parameters: unit not given here
[1] = system: A. baumannii (ATCC BAA-1605); assay: Broad-spectrum activity against Gram-Negative bacteria (MIC); format: cell-based; details: Table 16, Gram-negative panel
[2] = system: P. aeruginosa (ATCC 10145); assay: as above; format: cell-based; details: Table 16, Gram-negative panel
[3] = system: P. aeruginosa (ATCC BAA-1744); assay: as above; format: cell-based; details: Table 16, Gram-negative panel
[4] = system: Methicillin-resistant Staphylococcus aureus MRSA (ATCC BAA-1556); details: MRSA ATCC BAA-1556
S. aureus ATCC 29213 = details: S. aureus ATCC 29213
[5] = system: Pseudomonas aeruginosa (ATCC 27883); details: P. aeruginosa ATCC 27883
[6] = system: Escherichia coli (ATCC 25922); details: E. coli ATCC 25922
[7] = system: Klebsiella pneumoniae (ATCC BAA-1705); details: Table 16, Gram-negative panel
[8] = system: Enterococcus faecium ATCC 27270; details: E. faecium ATCC 27270
[9] = system: Enterococcus faecium ATCC 700221; details: E. faecium ATCC 700221
[10] = system: Klebsiella pneumoniae ATCC 13883; details: Table 16, Gram-negative panel
[11] = system: Enterococcus faecalis ATCC 29212; details: E. faecalis ATCC 29212
[12] = system: Enterococcus faecalis ATCC 51575; details: E. faecalis ATCC 51575
[13] = system: Streptococcus pneumoniae ATCC 49619; details: S. pneumoniae ATCC 49619
[14] = system: Streptococcus pneumoniae ATCC 51938; details: S. pneumoniae ATCC 51938

| Substance | Broad-spectrum activity B. subtilis (ATCC-6633) (B. subtilis (ATCC-6633)) | MIC E. coli (ATCC BAA-2452) (E. coli (ATCC BAA-2452)) [µg/mL] | Broad-spectrum activity B. cereus (ATCC-13061) (B. cereus (ATCC-13061)) | MIC A. baumannii (ATCC BAA-1605) [1] [µg/mL] | MIC P. aeruginosa (ATCC 10145) [2] [µg/mL] | MIC P. aeruginosa (ATCC BAA-1744) [3] [µg/mL] | MIC MRSA ATCC BAA-1556 [4] [µg/mL] | MIC S. aureus ATCC 29213 (S. aureus ATCC 29213) [µg/mL] | MIC P. aeruginosa ATCC 27883 [5] [µg/mL] | MIC E. coli ATCC 25922 [6] [µg/mL] | MIC K. pneumonia (ATCC BAA-1705) [7] [µg/mL] | Broad-spectrum activity E. faecium (ATCC 27270) [8] | Broad-spectrum activity E. faecium (ATCC 700221) [9] | MIC K. pneumonia (ATCC 13883) [10] [µg/mL] | Broad-spectrum activity E. faecalis (ATCC 29212) [11] | Broad-spectrum activity E. faecalis (ATCC 51575) [12] | Broad-spectrum activity S. pneumoniae (ATCC 49619) [13] | Broad-spectrum activity S. pneumoniae (ATCC 51938) [14] |
| --- | --- | --- | --- | --- | --- | --- | --- | --- | --- | --- | --- | --- | --- | --- | --- | --- | --- | --- |
| c[arg-Arg-Arg-Arg-Dip-Dip-Dip] [IFX-066] | 1.5 | 12.5 | 6.2 | 6.2 | 25 | 12.5 | 1.5 | 3.1 | 12.5 | 12.5 | 12.5 | 3.1 | 3.1 | 50 | 6.2 | 12.5 | 25 | 12.5 |
| c[arg-Arg-Arg-Arg-Dip-Trp-Dip] [IFX-094] | 3.1 | 12.5 | 6.2 | 12.5 | 50 | 25 | 3.1 | 3.1 | 6.2 | 12.5 | 12.5 | 6.2 | 12.5 | 50 | 12.5 | 12.5 | 25 | 25 |
| c[arg-Arg-arg-Arg-dip-Trp-dip] [IFX-096] | 3.1 | 12.5 | 6.2 | 25 | 50 | 50 | 3.1 | 3.1 | 6.2 | 6.2 | 25 | 3.1 | 6.2 | 50 | 12.5 | 12.5 | 25 | 25 |
| c[arg-arg-Arg-Arg-NaI-trp-NaI] [IFX-140] | 1.5 | 25 | 3.1 | 12.5 | 25 | 25 | 3.1 | 3.1 | 32 | 32 | > 50 | 3.1 | 6.2 | 50 | 6.2 | 6.2 | 25 | 12.5 |
